Tests used:
Type in all cases: cell-based
[1] = system: Leptosphaeria nodorum; test: Antifungal activity test (PDA plate, hypha extension inhibition); settings: 0.8 ppm in PDA culture medium
Method: (Antifungal Activity Test against Various Pathogenic Fungi) For each of the compounds I-1 to 27 of the present invention and the comparative compounds (a) to (d), (m-1) and (m-3), 20 mg was weighed and dissolved in 2 ml of dimethylsulfoxide, and a double dilution row in 10 steps was prepared by further using dimethylsulfoxide. A 0.6 ml portion of these solutions was each added to 60 ml of a PDA culture medium (potato-dextrose-agar culture medium) at about 60° C., they were well mixed in a 100 ml Erlenmeyer flask, the solution was poured into a schale and was solidified, the plate culture media containing the compounds according to the present invention with final concentrations of 100, 50.0, 25.0, 12.5, 6.3, 3.2, 1.6, 0.8, 0.4 and 0.2 mg/l were prepared. On the other hand, the specimen bacteria cultured on the plate culture media beforehand was punched by a 4 mm diameter cork borer, and was inoculated on the plate culture media containing the aforementioned chemicals. After the inoculation, the bacteria were cultured at the optimum growth temperature of each bacterium for 1 to 7 days (for this optimum growth temperature, LIST OF CULTURES 1996 Microorganisms 10th edition published by Fermentation Research Institute (Foundation) can be referred to.), and the growth of the bacteria was measured by the diameter of a colony. […] R=100(dc−dt)/dc (Equation 3) [wherein each symbol is shown as follows: R=Hypha extension inhibition rate (%), dc=Diameter of colony on no-treated plate, dt=Diameter of colony on chemical-treated plate.] The results obtained above was evaluated in 5 steps in accordance with the following examination scale. <Growth Inhibition> 5: Hypha extension inhibition rate of 90% or more 4: Hypha extension inhibition rate of from 70% to less than 90% 3: […] 2: […] In addition, the abbreviations in Table 10 are as follows: L.n: Leptosphaeria nodorum

[2] = system: Pyricularia oryzae; settings: 12.5 ppm in PDA culture medium
[3] = system: Venturia inaequalis; test: Antifungal activity test (PDA plate, hypha extension inhibition); settings: 3.2 ppm in PDA culture medium
Method: (§1) (Antifungal Activity Test against Various Pathogenic Fungi) For each of the compounds I-1 to 27 of the present invention and the comparative compounds (a) to (d), (m-1) and (m-3), 20 mg was weighed and dissolved in 2 ml of dimethylsulfoxide, and a double dilution row in 10 steps was prepared by further using dimethylsulfoxide. A 0.6 ml portion of these solutions was each added to 60 ml of a PDA culture medium (potato-dextrose-agar culture medium) at about 60° C., they were well mixed in a 100 ml Erlenmeyer flask, the solution was poured into a schale and was solidified, the plate culture media containing the compounds according to the present invention with final concentrations of 100, 50.0, 25.0, 12.5, 6.3, 3.2, 1.6, 0.8, 0.4 and 0.2 mg/l were prepared. On the other hand, the specimen bacteria cultured on the plate culture media beforehand was punched by a 4 mm diameter cork borer, and was inoculated on the plate culture media containing the aforementioned chemicals. After the inoculation, the bacteria were cultured at the optimum growth temperature of each bacterium for 1 to 7 days (for this optimum growth temperature, LIST OF CULTURES 1996 Microorganisms 10th edition published by Fermentation Research Institute (Foundation) can be referred to.), and the growth of the bacteria was measured by the diameter of a colony. […]

[4] = system: Pseudocercosporella herpotrichoides; test: as above; settings: 25 ppm in PDA culture medium
Method: as §1

Structure (SMILES)	Growth Inhibition L.n (0.8) [1]	Growth Inhibition P.o (12.5) [2]	Growth Inhibition V.i (3.2) [3]	Growth Inhibition P.h (25) [4]
CC(Cc1ccc(C(F)(F)F)c(F)c1F)CN(C)Cc1ccc(Cl)nc1 (centres unmarked) [Compound I-10]	4 (Hypha extension inhibition rate of from 70% to less than 90%)	4 (Hypha extension inhibition rate of from 70% to less than 90%)	4 (Hypha extension inhibition rate of from 70% to less than 90%)	5 (Hypha extension inhibition rate of 90% or more)
CC(Cc1ccc2c(c1)OC(F)(F)O2)CN(C)Cc1ccc(Cl)nc1 (centres unmarked) [Compound I-24]	5 (Hypha extension inhibition rate of 90% or more)	4 (Hypha extension inhibition rate of from 70% to less than 90%)	4 (Hypha extension inhibition rate of from 70% to less than 90%)	5 (Hypha extension inhibition rate of 90% or more)

Source: patent US20040152903A1, “6-chloro-3-pyridylmethylpropylamine derivatives, preparation process thereof and bactericides” (priority 2004, published 2004)
